Measured values: patent publication US9828350B2, “5,6-dihydro-2H-[1,4]oxazin-3-yl-amine derivatives useful as inhibitors of beta-secretase (BACE)” (Janssen Pharmaceutica NV, priority 2010, dated 2017)
Structures can show the parent of a compound that is named as a salt.

Assays:
[1] = biological target: recombinant BACE1 protein (Homo sapiens, UniProt P56817); experiment: Biochemical FRET based assay; settings: recombinant BACE1 1 μg/ml, 120 minutes at room temperature, pH 5.0; for IC50: read-out: Biochemical FRET based assay pIC50 (converted)
Text: Biochemical FRET Based Assay
This assay is a Fluorescence Resonance Energy Transfer Assay (FRET) based assay. The substrate for this assay is an APP derived 13 amino acids peptide that contains the ‘Swedish’ Lys-Met/Asn-Leu mutation of the amyloid precursor protein (APP) beta-secretase cleavage site. This substrate also contains two fluorophores: (7-methoxycoumarin-4-yl) acetic acid (Mca) is a fluorescent donor with excitation wavelength at 320 nm and emission at 405 nm and 2,4-Dinitrophenyl (Dnp) is a proprietary quencher acceptor. […] Upon cleavage by BACE1, the fluorophore Mca is separated from the quenching group Dnp, restoring the full fluorescence yield of the donor. The increase in fluorescence is linearly related to the rate of proteolysis.
Briefly in a 384-well format recombinant BACE1 protein in a final concentration of 1 μg/ml is incubated for 120 minutes at room temperature with […] substrate in incubation buffer (40 mM Citrate buffer pH 5.0, 0.04% PEG, 4% DMSO) in the absence or presence of compound. Next the amount of proteolysis is directly measured by fluorescence measurement at T=0 and T=120 (excitation at 320 nm and emission at 405 nm). Results are expressed in RFU (Relative Fluorescence Units), as difference between T120 and TO.

[2] = tested on: Abeta total; experiment: Cellular αLisa assay in SKNBE2 cells, Abeta total; type: cell-based, human; settings: incubated for 18 hours; for IC50: Homo sapiens, SKNBE2, 18 h, read-out: Cellular αLisa assay in SKNBE2 cells Abetatotal pIC50 (converted)
Method: (§1) Cellular αLisa Assay in SKNBE2 Cells
(§2) In two αLisa assays the levels of Abeta total and Abeta 1-42 produced and secreted into the medium of human neuroblastoma SKNBE2 cells are quantified. The assay is based on the human neuroblastoma SKNBE2 expressing the wild type Amyloid Precursor Protein (hAPP695). The compounds are diluted and added to these cells, incubated for 18 hours and then measurements of Abeta 1-42 and Abeta total are taken. Abeta total and Abeta 1-42 are measured by sandwich αLisa. αLisa is a sandwich assay using biotinylated antibody AbN/25 attached to streptavidin coated beads and antibody Ab4G8 or cAb42/26 conjugated acceptor beads for the detection of Abeta total and Abeta 1-42 respectively. In the presence of Abeta total or Abeta 1-42, the beads come into close proximity. The excitation of the donor beads provokes the release of singlet oxygen molecules that trigger a cascade of energy transfer in the acceptor beads, resulting in light emission. Light emission is measured after 1 hour incubation (excitation at […] and emission at 615 nm).

[3] = tested on: Abeta 1-42; experiment: Cellular αLisa assay in SKNBE2 cells, Abeta 1-42; type: cell-based, human; settings: incubated for 18 hours; for IC50: Homo sapiens, SKNBE2, 18 h, read-out: Cellular αLisa assay in SKNBE2 cells Abeta 42 pIC50 (converted)
Method: as §1, §2

Chain of recombinant BACE1 protein (P56817 46-501): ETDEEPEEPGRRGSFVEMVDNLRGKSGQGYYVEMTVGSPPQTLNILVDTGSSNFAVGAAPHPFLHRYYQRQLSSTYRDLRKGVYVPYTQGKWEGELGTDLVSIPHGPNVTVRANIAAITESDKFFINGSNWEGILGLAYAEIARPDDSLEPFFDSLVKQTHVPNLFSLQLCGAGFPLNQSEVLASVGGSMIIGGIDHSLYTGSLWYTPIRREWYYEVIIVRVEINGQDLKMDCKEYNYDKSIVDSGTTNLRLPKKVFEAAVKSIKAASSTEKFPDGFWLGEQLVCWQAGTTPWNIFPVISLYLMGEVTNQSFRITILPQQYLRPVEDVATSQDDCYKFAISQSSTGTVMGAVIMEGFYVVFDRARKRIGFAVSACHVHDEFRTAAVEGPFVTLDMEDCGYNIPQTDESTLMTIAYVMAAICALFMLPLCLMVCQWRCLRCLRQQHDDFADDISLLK

SMILES | Cellular αLisa assay in SKNBE2 cells Abetatotal pIC50 [2] | Cellular αLisa assay in SKNBE2 cells Abeta 42 pIC50 [3] | IC50 [2] | IC50 [3] | other results
CC1(c2cccc(NC(=O)c3ccc(Cl)cn3)c2)COC(F)(C(F)(F)F)C(N)=N1 (single isomer, unassigned) [Compound 157] | <5 | <5 | – | – | Biochemical FRET based assay pIC50 [1]: <4.52
CC1(c2cccc(-c3cncc(C#N)c3)c2)N=C(N)COC1C(F)(F)F (stereo not drawn) [Compound 171] | – | – | 129 nM | 135 nM | IC50 [1]: 1120 nM
NC1=N[C@@](c2cccc(NC(=O)c3ncc(Cl)cc3F)c2)(C2CC2)[C@@H](C(F)(F)F)OC1 [Compound 287] | – | – | 27.5 nM | 32.4 nM | IC50 [1]: 138 nM
NC1=N[C@@](c2cc(NC(=O)c3cnc(OCC(F)(F)F)cn3)ccc2F)(C2CC2)[C@@H](F)OC1 [Compound 264] | – | – | 316 nM | 347 nM | IC50 [1]: 91.2 nM
CC1(c2cc(-c3cncnc3)ccc2F)COCC(N)=N1 (racemic) [Compound 58] | 6.68 | 6.7 | – | – | Biochemical FRET based assay pIC50 [1]: 5.11
CC1(c2cc(NC(=O)c3ccc(Cl)cn3)ccc2F)N=C(N)COC1(F)C(F)(F)F (stereo not drawn) [Compound 186] | 6.78 | 6.75 | – | – | –
CC1(c2cc(NC(=O)c3ccc(Cl)cn3)ccc2F)COCC(N)=N1 (racemic) [Compound 65] | 8.3 | 8.32 | – | – | –
CC1(c2cc(NC(=O)c3ccc(Cl)cn3)ccc2F)N=C(N)COC1F (single isomer, unassigned) [Compound 137] | <4.82 | <4.82 | – | – | –
COc1cnc(C(=O)Nc2ccc(F)c(C3(C)N=C(N)COC3F)c2)cn1 (single isomer, unassigned) [Compound 129] | – | – | 4570 nM | 5250 nM | –
COc1cnc(C(=O)Nc2ccc(F)c(C3(C4CC4)N=C(N)COC3F)c2)cn1.Cl (stereo not drawn) [Compound 244] | 7.11 | – | – | – | –
CC1(c2cc(NC(=O)c3ncc(Cl)cc3Cl)ccc2F)COCC(N)=N1 (stereo not drawn) [Compound 21] | 8.3 | 8.27 | – | – | –
COc1cnc(C(=O)Nc2ccc(F)c(C3(C)COCC(N)=N3)c2)cn1 (racemic) [Compound 57] | 7.8 | 7.79 | – | – | –
CC1(c2cc(NC(=O)c3ccc(Cl)cn3)ccc2F)N=C(N)COC1C(F)(F)F (racemic) [Compound 107, trans-rac-N-{3-[5-amino-3-methyl-2-(trifluoromethyl)-3,6-dihydro-2H-1,4-oxazin-3-yl]-4-fluorophenyl}-5-chloropyridine-2-carboxamide] | – | – | 12.6 nM | 15.5 nM | –
CC1(c2cc(NC(=O)c3ccc(Cl)cn3)ccc2F)N=C(N)COC1C(F)(F)F (stereo not drawn) [Compound 165] | 8.13 | 8.14 | – | – | –
CC1(c2cccc(-c3cncnc3)c2)COCC(N)=N1 (racemic) [Compound 3, rac-5-methyl-5-(3-pyrimidin-5-ylphenyl)-5,6-dihydro-2H-1,4-oxazin-3-amine trifluoroacetate salt] | – | – | 646 nM | 631 nM | –
CC1(c2cc(NC(=O)c3ccc(C#N)cn3)ccc2F)N=C(N)COC1F (single isomer, unassigned) [Compound 125] | 6.42 | 6.44 | – | – | –
COc1ccc(C(=O)Nc2cccc([C@@]3(C)N=C(N)CO[C@]3(F)C(F)(F)F)c2)nc1 [Compound 247] | – | – | 14.5 nM | 16.2 nM | –

SMILES | Cellular αLisa assay in SKNBE2 cells Abetatotal pIC50 [2] | Cellular αLisa assay in SKNBE2 cells Abeta 42 pIC50 [3] | IC50 [2] | IC50 [3] | other results
CC1(c2cccc(NC(=O)c3ccc(Cl)cn3)c2)N=C(N)COC1(F)C(F)(F)F (single isomer, unassigned) [Compound 115] | 6.68 | – | – | – | –
C[C@]1(c2cc(NC(=O)c3ccc(Cl)cn3)ccc2F)N=C(N)CO[C@@]1(F)C(F)(F)F (single isomer, unassigned) [Compound 110, (2S*,3R*)—N-{3-[5-amino-2-fluoro-3-methyl-2-(trifluoromethyl)-3,6-dihydro-2H-1,4-oxazin-3-yl]-4-fluorophenyl}-5-chloropyridine-2-carboxamide] | – | – | 22.4 nM | 22.9 nM | –
CC1(c2cc(NC(=O)c3ccc(Cl)cn3)ccc2F)COCC(N)=N1 (single isomer, unassigned) [Compound 61] | 6.98 | 6.94 | – | – | –
C[C@@]1(c2cc(NC(=O)c3ccc(Cl)cn3)ccc2F)COCC(N)=N1 [Compound 44] | 8.3945 | 8.39 | – | – | –
COc1ccc(C(=O)Nc2cccc([C@@]3(C)N=C(N)CO[C@@]3(F)C(F)(F)F)c2)nc1 [Compound 248] | – | – | 209 nM | 229 nM | –
CC1(c2cc(NC(=O)c3ccc(C#N)cn3)ccc2F)N=C(N)COC1F (stereo not drawn) [Compound 76] | – | – | 11.2 nM | 11 nM | –
CC1(c2cc(NC(=O)c3ccc(Cl)cn3)ccc2F)COCC(N)=N1 (racemic) [Compound 17] | 8.3 | 8.32 | – | – | –
C[C@@]1(c2cc(NC(=O)c3ccc(Cl)cn3)ccc2F)COCC(N)=N1 [Compound 62] | 8.39 | 8.39 | – | – | –
CC1(c2cc(NC(=O)c3ccc(Cl)cn3)ccc2F)N=C(N)COC1C(F)(F)F (stereo not drawn) [Compound 170] | 8 | 8 | – | – | –
CC1(c2cc(NC(=O)c3ccc(Cl)cn3)ccc2F)N=C(N)COC1F (single isomer, unassigned) [Compound 136] | 5.27 | 5.26 | – | – | –
NC1=N[C@@](c2cc(-c3cncc(Cl)c3)ccc2F)(C2CC2)[C@H](F)OC1 [Compound 273] | – | – | 6460 nM | 8130 nM | –
COc1cnc(C(=O)Nc2ccc(F)c(C3(C)N=C(N)COC3F)c2)cn1 (stereo not drawn) [Compound 79] | – | – | 25.7 nM | 25.7 nM | –
CC1(c2cccc(NC(=O)c3ccc(Cl)cn3)c2)N=C(N)COC1(F)C(F)(F)F (single isomer, unassigned) [Compound 114] | 5.5 | 5.82 | – | – | –
C[C@@]1(c2cc(NC(=O)c3ccc(Cl)cn3)ccc2F)N=C(N)CO[C@]1(F)C(F)(F)F (single isomer, unassigned) [Compound 109, (2R*,3S*)—N-{3-[5-amino-2-fluoro-3-methyl-2-(trifluoromethyl)-3,6-dihydro-2H-1,4-oxazin-3-yl]-4-fluorophenyl}-5-chloropyridine-2-carboxamide] | – | – | 832 nM | 708 nM | –
CC1(c2cc(NC(=O)c3ccc(Cl)cn3)ccc2F)N=C(N)COC1F (single isomer, unassigned) [Compound 135] | 5.06 | 5.04 | – | – | –
CC1(c2cc(NC(=O)c3ccc(Cl)cn3)ccc2F)N=C(N)COC1(F)C(F)(F)F.Cl.Cl (single isomer, unassigned) [Compound 159] | 6.08 | 6.15 | – | – | –
